Assay results: patent publication US20030073731A1, “Compositions and methods of the use thereof achiral analogues of CC-1065 and the duocarmycins” (priority 2000, published 2003)
Like-named read-outs stand apart in the source and are kept apart here.

What was measured:
OVCAR-5 = assay type: cell-based, human
BT-549 [1] = tested on: BT-549
plasmid pBR322 DNA = assay: Taq polymerase stop assay; assay type: biochemical
DU-145 = assay type: cell-based, human
UO-31 = assay: cells; details: Homo sapiens
SF-539 = assay: cells; details: Homo sapiens
[2] = tested on: human colon adenocarcinoma cell line, LS 174T; assay: cells; details: LS174T
Method: Cells were seeded in 96-well microtiter plates at densities of 1000 cells/well. The optimal seeding density was determined to ensure exponential growth in control wells throughout the experimental period and to obtain a linear relationship between absorbance at 492 nm and cell number when analyzed by the sulforhodamine B (SRB) assay (43). 24 hours after seeding the cells were incubated for 1 hour or continuously for 3 days with the drugs (concentration range 0.01 to 500 pM). The cells were washed once and then incubated in drug free medium for 6 days. At the end of the incubation cell growth was determined by the SRB assay, which quantifies viable cells by measuring their total cellular protein content. […] Similar studies were conducted against the growth of PC3 (human prostate cancer cells) and MCF-7 (human breast cancer cells).

SF-295 = assay: cells; details: Homo sapiens
SNB-75 = assay: cells; details: Homo sapiens
SK-MEL-28 = assay: cells; details: Homo sapiens
HS 578T = assay: cells; details: Homo sapiens
EKVX = assay: cells; details: Homo sapiens
NCI-H460 = assay: NCI in-vitro cytotoxicity screen, Non-Small Cell Lung Cancer panel; assay type: cell-based; details: Homo sapiens
Method: (§2) The compounds of this invention were also tested against the panel of 60 human cancer cell lines at the National Cancer Institute, Bethesda, Md. […] The cytotoxicity studies were conducted using a 48 hour exposure, and measuring the optical density of sulforhodamine B-derived color.

MOLT-4 = assay: cells; details: Homo sapiens
COLO 205 = assay: NCI in-vitro cytotoxicity screen, Colon Cancer panel; assay type: cell-based; details: Homo sapiens
Method: as §2

L1210 leukemia cells = assay: cells; assay type: cell-based, murine; details: Mus musculus; L1210, 72 hr incubation
Method: (§1) The P815 and L1210 cell lines were obtained from American Type Tissue Culture Collection (ATCC). The cell lines were grown in Delbecco's Modified Eagle Medium (DMEM, Atlanta Biologicals) supplemented with 10% fetal bovine serum, Hepes Buffer (2 mM, Mediatech Cellgro, 25-060-Cl), L-Glutamine (2 mM, Mediatech Cellgro), and penicillin/streptomycin (50,000 units penicillin, […] streptomycin, Atlanta Biologicals). Cells were maintained at 37° C. in a 5% humidified CO2 atmosphere. […] This cell suspension (100 μL) was added to 96 well flat-bottom cell culture plates. At this concentration, 80,000 cells were seeded in each well. Drug solutions (dissolved in DMSO and diluted in DMEM) were added to each well (5 μL/well) resulting in final concentrations ranging from […] to 1×10^−12 M. Quadruplicate wells were prepared for each drug concentration. The plates were incubated for 72 hr at 37° C. in a 5% CO2 atmosphere. MTT (3-(4,5-dimethylthiazol-2-yl)-2,5-diphenyl tetrazolium bromide) was dissolved in PBS (5 mg/ml). After the indicated cell incubation period, 10 μL of this stock MTT solution was added to each well and the plates were further incubated for 4 h at 37° C. in a 5% CO2 atmosphere. […] The contents of the well were mixed thoroughly by pipetting the cell suspension up and down and the plates were allowed to sit at room temperature for 15 min in order to allow for full development of the purple color. The plates were read on a Dynatech Plate Reader, utilizing Dynex Revelation 3.2 software, with a test wavelenth of 570 nm and a reference wavelength of […].

P815 mastocytoma cells = assay: cells; assay type: cell-based, murine; details: Mus musculus; P815, 72 hr incubation
Method: as §1

HCT-116 = assay: cells; details: Homo sapiens
UACC-257 = assay: cells; details: Homo sapiens
SN12C = assay: cells; details: Homo sapiens
OVCAR-3 = assay: cells; details: Homo sapiens
HCT-15 = assay: cells; details: Homo sapiens
BT-549 [3] = assay: cells; details: Homo sapiens

Compound: 4-(2-Chloroethyl)-3-[5-(5-benzofuran-2-carboxamido)indole-2-carboxamido]phenol [Compound 1]
- GI50 (NCI-H23): 1670 nM
- TGI (NCI-H23): 3.38E-06 Molar
- GI50 (OVCAR-5): 2280 nM
- TGI (OVCAR-5): 5.80E-06 Molar
- GI50 (BT-549 [1]): 3600 nM
- TGI (BT-549 [1]): 2.05E-05 Molar
- GI50 (KM12): 18800 nM
- TGI (KM12): 3.50E-05 Molar
- GI50 (ACHN): 1530 nM
- TGI (ACHN): 5.55E-06 Molar
- sequence selectivity compared with compound 27 (plasmid pBR322 DNA): stronger sequence selectivity than 27
- GI50 (CCRF-CEM): 1260 nM
- TGI (CCRF-CEM): 5.28E-06 Molar
- GI50 (DU-145): 1120 nM
- TGI (DU-145): 6.16E-06 Molar
- GI50 (MDA-MB-435): 1890 nM
- TGI (MDA-MB-435): 3.75E-06 Molar
- GI50 (MCF7): 1030 nM
- TGI (MCF7): 2.27E-06 Molar
- GI50 (U251): 2410 nM
- TGI (U251): 1.23E-05 Molar
- GI50 (HCC-2998): 1760 nM
- TGI (HCC-2998): 3.56E-06 Molar

Compound: COC(=O)c1[nH]c2c(O)cc(NC(=O)c3cc4cc(OC)c(OC)c(OC)c4[nH]3)c(CCCl)c2c1C(=O)OC [Compound 22, Dimethyl 4-(2-chloroethyl)-7-hydroxy-5-(5,6,7-trimethoxyindole-2-carboxamido)indole-2,3-dicarboxylate]
- GI50 (UO-31; UO-31): 98.8 nM
- CC50 (UO-31; UO-31, read-out: LC50): > 50000 nM
- GI50 (SF-539; SF-539): 80.4 nM
- CC50 (SF-539; SF-539, read-out: LC50): 608 nM
- IC50 [2]: 4 nM
- IC50 ([2]; 1 h): 1860 nM
- GI50 (SF-295; SF-295): 126 nM
- CC50 (SF-295; SF-295, read-out: LC50): > 50000 nM
- GI50 (SNB-75; SNB-75): 62.8 nM
- CC50 (SNB-75; SNB-75, read-out: LC50): 711 nM
- GI50 (SK-MEL-28; SK-MEL-28): 172 nM
- CC50 (SK-MEL-28; SK-MEL-28, read-out: LC50): > 50000 nM
- GI50 (HS 578T): 138 nM
- CC50 (HS 578T; read-out: LC50): 946 nM
- GI50 (EKVX): 164 nM
- CC50 (EKVX; read-out: LC50): 3250 nM
- GI50 (NCI-H460): 114 nM
- GI50 (MOLT-4; MOLT-4): 10.5 nM
- CC50 (MOLT-4; MOLT-4, read-out: LC50): > 50000 nM
- GI50 (COLO 205; COLO 205): 233 nM
- CC50 (COLO 205; COLO 205, read-out: LC50): > 50000 nM
- IC50 (L1210 leukemia cells): 4200 nM
- IC50 (P815 mastocytoma cells): 5400 nM
- GI50 (HCT-116; HCT-116): 65.6 nM
- CC50 (HCT-116; HCT-116, read-out: LC50): 33200 nM
- GI50 (UACC-257; UACC-257): 170 nM
- CC50 (UACC-257; UACC-257, read-out: LC50): > 50000 nM
- GI50 (SN12C): 179 nM
- CC50 (SN12C; read-out: LC50): > 50000 nM
- GI50 (OVCAR-3; OVCAR-3): 139 nM
- CC50 (OVCAR-3; OVCAR-3, read-out: LC50): 23000 nM
- GI50 (HCT-15; HCT-15): 259 nM
- CC50 (HCT-15; HCT-15, read-out: LC50): > 50000 nM
- GI50 (BT-549 [3]; BT-549): 329 nM
- CC50 (BT-549 [3]; BT-549, read-out: LC50): > 50000 nM
